Source: patent US11673947B2, “Target tissue-specific antigen-binding molecule” (Chugai Seiyaku Kabushiki Kaisha, priority 2012, dated 2023)

Tests used:
[1] = target: T1, IL-6 (Homo sapiens, UniProt P05231); format: binding; design: purchased Kamakura Techno-Science, Inc; conditions: estimated
Description: Using Biacore T200 (GE Healthcare), A11 was analyzed for its interaction with human IL-6 (Kamakura Techno-Science, Inc.) in antigen-antibody reaction. Sensor chip CM5 (GE Healthcare) was immobilized with an appropriate amount of protein A/G (Invitrogen) by amine coupling. Antibodies of interest were captured by the chip to allow interaction to IL-6 as an antigen. The two types of running buffers used were 10 mmol/1 ACES, 150 mmol/l NaCl, 0.05% (w/v) Tween20, 100 μmol/l kynurenine, pH 7.4, and 10 mmol/1 ACES, 150 mmol/l NaCl, 0.05% (w/v) Tween20, pH 7.4. The interaction with IL-6 as an antigen was assessed at 37° C. The buffer used to dilute IL-6 was the same running buffer as described above.
A diluted solution of human IL-6 and a running buffer as a blank were injected at a flow rate of 5 μl/min for three minutes to allow interaction of human IL-6 with A11 captured on the sensor chip. […] The dissociation constant KD (M) of A11 was calculated for human IL-6 based on the association rate constant ka (1/Ms) and dissociation rate constant kd (1/s), both of which are kinetic parameters calculated from the sensorgram obtained by the measurement. Each parameter was calculated using the Biacore T200 Evaluation Software (GE Healthcare).
Then, the effect of kynurenine concentration on antigen-antibody reaction between A11 and human IL-6 was assessed using Biacore T200 (GE Healthcare). […]

[2] = target: T1, IL-6; experiment: Biacore T200, interaction between IL-6 and kynurenine; format: binding; design: purchased Kamakura Techno-Science, Inc; conditions: kynurenine at a maximal concentration of 800 nmol/l, about 5000 RU IL-6 immobilized, 25° C.
Description: The interaction between IL-6 (Kamakura Techno-Science, Inc.) and kynurenine was analyzed using Biacore T200 (GE Healthcare). Sensor chip CM5 (GE Healthcare) was immobilized with about 5000 RU of IL-6 by amine coupling, and 800, 400, 200, 100, 50, or 25 nmol/l kynurenine was allowed to interact with IL-6. The running buffer used was 10 mmol/l ACES, 150 mmol/l NaCl, 0.05% (w/v) Tween20, pH 7.4. All measurements for the interaction described above were carried out at 25° C. Kynurenine was diluted using the running buffer.
About 5000 RU of IL-6 was immobilized in the above-described experiment. The molecular weights of IL-6 and kynurenine were about 20000 g/mol and about 200 g/mol, respectively. Thus, at maximum about 50 RU of kynurenine was expected to interact.

[3] = target: T2, hIL-6R (Homo sapiens, UniProt P08887); experiment: IgG ELISA, binding to hIL-6R in mouse serum with or without kynurenine; conditions: mouse serum with or without kynurenine
T2 sequence (P08887 20-355 limits assumed): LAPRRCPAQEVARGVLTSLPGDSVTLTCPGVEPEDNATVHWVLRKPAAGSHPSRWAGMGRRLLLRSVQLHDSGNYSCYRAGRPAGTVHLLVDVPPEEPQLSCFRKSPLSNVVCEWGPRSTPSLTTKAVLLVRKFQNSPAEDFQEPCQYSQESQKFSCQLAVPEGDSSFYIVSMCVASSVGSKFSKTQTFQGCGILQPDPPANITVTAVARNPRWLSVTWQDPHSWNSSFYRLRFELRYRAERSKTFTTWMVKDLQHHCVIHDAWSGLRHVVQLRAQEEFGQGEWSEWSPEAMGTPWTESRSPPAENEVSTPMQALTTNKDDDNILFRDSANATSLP
Description: As described in Example 14, antibody 6RNMSC1-2_F02 which has antigen-binding activity in the presence of kynurenine, and the known anti-hIL-6R antibody MRA were subjected to ELISA under the two conditions described in Table 20. The antigen used was biotin-labeled hIL-6R.
First, a StreptaWell 96 microtiter plate (Roche) was coated at room temperature for one hour or more with 100 μl of PBS containing the biotin-labeled antigen. After washing with Wash buffer to remove unbound antigen from the plate, each well was blocked for one hour or more with 250 μl of Blocking Buffer. After Blocking Buffer was removed from each well, each of the purified IgGs was prepared to 2.5 μg/ml under condition 2 shown in Table 20, and aliquoted at 100 μl into the plate. The plate was allowed to stand at room temperature for one hour to allow binding of each IgG to the antigen in each well. After washing with Wash Buffer containing 100 μM kynurenine, an HRP-conjugated anti-human IgG antibody (BIOSOURCE) diluted with Sample Buffer containing kynurenine was added to each well. The plate was incubated for one hour. Following wash with Wash Buffer containing kynurenine, the TMB single solution (ZYMED) was added to each well. The chromogenic reaction in the solution of each well was terminated by adding sulfuric acid. Then, the developed color was assessed by measuring absorbance at 450 nm.

[4] = test system: BaF/hIL-6R cells; experiment: Flow cytometry, binding to membrane-type hIL-6R on BaF/hIL-6R cells; format: cell-based; conditions: with and without 100 μM kynurenine
Description: 6RNMSC1-2_F02 antibody which has an antigen-binding activity in the presence of kynurenine as described in Example 14 was assessed for its binding to soluble hIL-6R. As a first step in assessing the ADCC activity of 6RNMSC1-2_F02 to hIL-6R-expressing cells, 6RNMSC1-2_F02 was evaluated as to whether it has the ability to bind to membrane-type hIL-6R expressed in hIL-6R-expressing cells. Specifically, the binding of 6RNMSC1-2_F02 to cells of the BaF/hIL-6R line (WO2012/073992) was assayed and analyzed using a flow cytometer. An appropriate number of BaF/hIL-6R cells were prepared and blocked with PBS containing 2% FBS on ice for one hour or more. Supernatant was removed from the blocked cells by centrifugation, and 100 μl of 6RNMSC1-2_F02 or the control antibody MRA (the heavy chain and light chain sequences are shown in SEQ ID NOs: 92 and 93, respectively) was added under two conditions: in the presence or absence of a final concentration of kynurenine at 100 μM. In this step, the antibodies were contacted with cell-membrane hIL-6R on ice for 30 minutes. […] Then, in the presence or absence of kynurenine, the complex was contacted with a secondary antibody (Beckman Coulter IM1627) that recognizes the antibody constant region. […] The binding of 6RNMSC1-2_F02 to the prepared cells was assayed and analyzed using the BD FACS cant II Flow Cytometer (BD).

T1 sequence (P05231 30-212): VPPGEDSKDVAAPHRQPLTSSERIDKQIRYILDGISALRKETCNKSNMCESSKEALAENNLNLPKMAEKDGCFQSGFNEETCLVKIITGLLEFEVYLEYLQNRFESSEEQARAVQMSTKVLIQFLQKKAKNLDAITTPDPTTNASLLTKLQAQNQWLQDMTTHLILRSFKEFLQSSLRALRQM

Row | Molecule | KD of kynurenine for formation of the complex consisting of A11, IL-6, and kynurenine [1] | interaction with IL-6 [2] | absorbance, effect of kynurenine [3] | fluorescence (binding to membrane-type hIL-6R) [4]
1 | Nc1ccccc1C(=O)C[C@H](N)C(=O)O [kynurenine] | several tens nM to several nM | not detectable |  | 
2 | MRA: known anti-human IL-6R antibody; SEQ ID NOs: 92 and 93 [reference compound] |  |  | the same regardless of the presence or absence of kynurenine | detectable regardless of the presence or absence of kynurenine
